In PubChem BioAssay (NCI):
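Method: 48-hour compound exposure of cells in 96-well plates, five concentrations, linear interpolation of endpoints. TGI: total growth inhibition.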

Legend:
Assay in all cases: NCI tumour cell line growth inhibition, 48 h
NCI-H522 lung = tested on: NCI-H522 lung
OVCAR-4 ovarian = tested on: OVCAR-4 ovarian
DMS 114 small cell lung = tested on: DMS 114 small cell lung
RPMI-8226 leukemia = tested on: RPMI-8226 leukemia
SF-268 CNS = tested on: SF-268 CNS
HOP-18 NSCLC = tested on: HOP-18 NSCLC
NCI-H460 lung = tested on: NCI-H460 lung
HCT-116 colon = tested on: HCT-116 colon
K-562 leukemia = tested on: K-562 leukemia
COLO 205 colon = tested on: COLO 205 colon
CCRF-CEM leukemia = tested on: CCRF-CEM leukemia
SK-MEL-28 melanoma = tested on: SK-MEL-28 melanoma
LOX IMVI melanoma = tested on: LOX IMVI melanoma
OVCAR-8 ovarian = tested on: OVCAR-8 ovarian
ACHN renal = tested on: ACHN renal
OVCAR-3 ovarian = tested on: OVCAR-3 ovarian
LXFL 529 NSCLC = tested on: LXFL 529 NSCLC
786-0 renal = tested on: 786-0 renal
HOP-92 NSCLC = tested on: HOP-92 NSCLC
HCC-2998 colon = tested on: HCC-2998 colon
M19-MEL melanoma = tested on: M19-MEL melanoma
U251 CNS = tested on: U251 CNS
SN12C renal = tested on: SN12C renal
EKVX NSCLC = tested on: EKVX NSCLC
SW-620 colon = tested on: SW-620 colon
UACC-62 melanoma = tested on: UACC-62 melanoma
TK-10 renal = tested on: TK-10 renal
UO-31 renal = tested on: UO-31 renal
SK-MEL-5 melanoma = tested on: SK-MEL-5 melanoma
HOP-62 NSCLC = tested on: HOP-62 NSCLC
RXF 393 renal = tested on: RXF 393 renal
DLD-1 colon = tested on: DLD-1 colon
IGROV1 ovarian = tested on: IGROV1 ovarian
UACC-257 melanoma = tested on: UACC-257 melanoma
MOLT-4 leukemia = tested on: MOLT-4 leukemia
M14 melanoma = tested on: M14 melanoma
HL-60(TB) leukemia = tested on: HL-60(TB) leukemia
A549 NSCLC = tested on: A549 NSCLC
XF 498 CNS = tested on: XF 498 CNS
SK-OV-3 ovarian = tested on: SK-OV-3 ovarian
SR leukemia = tested on: SR leukemia
SNB-19 CNS = tested on: SNB-19 CNS
KM20L2 colon = tested on: KM20L2 colon
HCT-15 colon = tested on: HCT-15 colon
HT29 colon = tested on: HT29 colon
NCI-H23 lung = tested on: NCI-H23 lung
DMS 273 small cell lung = tested on: DMS 273 small cell lung
SF-295 CNS = tested on: SF-295 CNS
KM12 colon = tested on: KM12 colon
SF-539 CNS = tested on: SF-539 CNS
SK-MEL-2 melanoma = tested on: SK-MEL-2 melanoma
OVCAR-5 ovarian = tested on: OVCAR-5 ovarian
A498 renal = tested on: A498 renal
MALME-3M melanoma = tested on: MALME-3M melanoma
CAKI-1 renal = tested on: CAKI-1 renal
NCI-H226 lung = tested on: NCI-H226 lung
SNB-75 CNS = tested on: SNB-75 CNS

Measured: TGI

NC(=O)NN/C=C(/C=Nc1ccccc1)[N+](=O)[O-]
> 100 µM: NCI-H522 lung | OVCAR-4 ovarian | DMS 114 small cell lung | RPMI-8226 leukemia | SF-268 CNS | HOP-18 NSCLC | NCI-H460 lung | HCT-116 colon | K-562 leukemia | COLO 205 colon | CCRF-CEM leukemia | SK-MEL-28 melanoma | LOX IMVI melanoma | OVCAR-8 ovarian | ACHN renal | OVCAR-3 ovarian | LXFL 529 NSCLC | 786-0 renal | HOP-92 NSCLC | HCC-2998 colon | M19-MEL melanoma | U251 CNS | SN12C renal | EKVX NSCLC | SW-620 colon | UACC-62 melanoma | TK-10 renal | UO-31 renal | SK-MEL-5 melanoma | HOP-62 NSCLC | RXF 393 renal | DLD-1 colon | IGROV1 ovarian | UACC-257 melanoma | MOLT-4 leukemia | M14 melanoma | HL-60(TB) leukemia | A549 NSCLC | XF 498 CNS | SK-OV-3 ovarian | SR leukemia | SNB-19 CNS | KM20L2 colon | HCT-15 colon | HT29 colon | NCI-H23 lung | DMS 273 small cell lung | SF-295 CNS

[N-]=[N+]=NC1C2CC3C4CC5CC3[C@H](C2)C(C5)C41 (stereo not given in full)
> 100 µM: NCI-H522 lung | OVCAR-4 ovarian | DMS 114 small cell lung | KM12 colon | RPMI-8226 leukemia | SF-268 CNS | HOP-18 NSCLC | NCI-H460 lung | SF-539 CNS | HCT-116 colon | K-562 leukemia | COLO 205 colon | CCRF-CEM leukemia | SK-MEL-28 melanoma | LOX IMVI melanoma | OVCAR-8 ovarian | ACHN renal | OVCAR-3 ovarian | LXFL 529 NSCLC | 786-0 renal | HOP-92 NSCLC | SK-MEL-2 melanoma | HCC-2998 colon | M19-MEL melanoma | U251 CNS | OVCAR-5 ovarian | SN12C renal | A498 renal | EKVX NSCLC | SW-620 colon | UACC-62 melanoma | MALME-3M melanoma | CAKI-1 renal | TK-10 renal | UO-31 renal | SK-MEL-5 melanoma | HOP-62 NSCLC | RXF 393 renal | NCI-H226 lung | DLD-1 colon | IGROV1 ovarian | UACC-257 melanoma | MOLT-4 leukemia | M14 melanoma | A549 NSCLC | XF 498 CNS | SK-OV-3 ovarian | SR leukemia | SNB-19 CNS | HT29 colon | NCI-H23 lung | DMS 273 small cell lung | SNB-75 CNS | SF-295 CNS

Cc1ccccc1N(CC(=O)O)S(=O)(=O)c1ccccc1
> 100 µM: NCI-H522 lung | OVCAR-4 ovarian | KM12 colon | RPMI-8226 leukemia | SF-268 CNS | HOP-18 NSCLC | NCI-H460 lung | SF-539 CNS | K-562 leukemia | COLO 205 colon | CCRF-CEM leukemia | SK-MEL-28 melanoma | LOX IMVI melanoma | OVCAR-8 ovarian | ACHN renal | OVCAR-3 ovarian | LXFL 529 NSCLC | 786-0 renal | HOP-92 NSCLC | SK-MEL-2 melanoma | HCC-2998 colon | M19-MEL melanoma | U251 CNS | OVCAR-5 ovarian | SN12C renal | A498 renal | EKVX NSCLC | SW-620 colon | UACC-62 melanoma | MALME-3M melanoma | CAKI-1 renal | TK-10 renal | UO-31 renal | SK-MEL-5 melanoma | RXF 393 renal | NCI-H226 lung | DLD-1 colon | IGROV1 ovarian | UACC-257 melanoma | MOLT-4 leukemia | M14 melanoma | HL-60(TB) leukemia | A549 NSCLC | XF 498 CNS | SK-OV-3 ovarian | SNB-19 CNS | KM20L2 colon | HCT-15 colon | HT29 colon | NCI-H23 lung | DMS 273 small cell lung | SNB-75 CNS | SF-295 CNS
